According to US20130280392A1, “PROCESS FOR CONTROLLING MICROORGANISMS IN BEVERAGE PRODUCTS” (DeLaval Holding AB, priority 2011, published 2013):

Experiments:
[1] = Degradation of PAA in juices over time, residual PAA by titration with 0.1N sodium thiosulfate; type: physicochemical; details: for PAA concentration (below detectable limit): after 10 min at 195° F. (90.5° C.); for half-life at 100 ppm: room temperature
Method: The half life of PAA decreases with increasing temperature. The half life of 100 ppm solution of PAA in carrot juice (Brix=8.8) at room temperature is less than 20 min. Similarly, the half life of a 100 ppm solution of PAA in apple juice (Brix=11.4) at room temperature is less than 30 min. After 10 min at 195° F. (90.5° C.), the PAA concentration of a 20 ppm solution of PAA in either carrot (Brix=8.8) or apple juice (Brix=11.4) is below the detectable limit of 0.89 ppm by titration with 0.1N sodium thiosulfate. Thus, when the juice is pasteurized and sent to an evaporator for concentration, any remaining PAA in solution would be converted to acetic acid, water, and oxygen, thereby leaving no or substantially no PAA remaining in the final juice product 32. Briefly, during the titration process, any oxidizing species present in the sample converts a solution of potassium iodide to iodine in the presence of ammonium paramolybdate and phosphoric acid. Subsequently, a starch solution is added to form a deep blue color upon binding iodine. The PAA concentration can be calculated based on the volume of titrant needed to revert the deep blue color.
In this experiment, several juices were dosed with peracetic acid (PAA) (peroxyacetic acid 5.6%, hydrogen peroxide 26.5%) and kept at a controlled temperature (22° C. or 90° C.) for a given period of time to determine how the PAA would degrade over time. At the end of the given time period, the level of PAA remaining in the juice was measured by titration with 0.1N sodium thiosulfate. It can be seen that the PAA decomposed quite rapidly in the various juices, particularly when exposed to elevated temperatures.

[2] = tested on: Alicyclobacillus acidoterrestris ATCC 49025; experiment: Germicidal efficacy of PAA and chlorine dioxide in dilute nutrient solution, apple juice and carrot juice, MPN viability count; type: cell-based; details: for LR: 22° C., 10 minutes contact, inoculum 1.40×10^7 CFU/ml; for reduction in the bacteria: all treated samples of Table 3 (5 and 10 ppm; nutrient solution, apple juice, carrot juice)
Method: In this experiment, the germicidal efficacy of various concentrations of PAA and chlorine dioxide (by dilution of CDG Solution 3000™, CDG Environmental LLC) at 22° C. after 10 minutes of contact time was determined in a dilute nutrient solution (Tryptone pancreatic digest of casein 1.0 g/L and NaCl 8.5 g/L), apple juice, and carrot juice. Alicyclobacillus acidoterrestris ATCC 49025 was used as the inoculum at a concentration of 1.40×10^7 CFU/ml. After the subscribed contact time, the PAA was neutralized with D/E broth and chlorine dioxide with a peroxide neutralizer, and a viability count for each of the juices was performed using the most probable number technique (MPN). The results are shown in Table 3, and graphically in FIG. 5.

[3] = tested on: Alicyclobacillus acidoterrestris; experiment: Antimicrobial efficacy of PAA in organic apple and carrot juice, MPN viability count; type: cell-based; details: 22° C.
Method: In this experiment, the antimicrobial efficacy of PAA in organic apple and carrot juice was measured by challenging the juices with 1×10^7 CFU/ml of Alicyclobacillus acidoterrestris, a spore-forming thermophile commonly present in juice operations. Immediately following bacterial challenge, the juice was dosed with different concentrations of PAA and incubated at room temperature (22° C.) for 10 minutes without agitation. After the subscribed contact time, the PAA was neutralized with D/E broth and a viability count for each of the juices was performed using the most probable number technique (MPN).

[4] = Chlorine dioxide demand of apple and carrot juice (HACH DPD Method #10126); type: physicochemical; details: 22° C., 10 minutes
Method: In this experiment, apple juice and carrot juice were exposed to pure and stable chlorine dioxide (CDG Solution 3000™, CDG Environmental, LLC) in order to determine their respective chlorine dioxide demands, as determined by HACH DPD Method for Chlorine dioxide (Method #10126). The juice samples were exposed to the chlorine dioxide under room temperature conditions (22° C.), and then the residual concentrations determined 10 minutes after exposure. It can be seen that the chlorine dioxide demands were relatively high.

[5] = 5 ppm, dilute nutrient solution
[6] = 10 ppm, dilute nutrient solution
[7] = apple juice, Brix 11.4, exposed concentration 5 ppm
[8] = apple juice, Brix 11.4, exposed concentration 10 ppm
[9] = apple juice, Brix 11.4, exposed concentration 25 ppm
[10] = apple juice, Brix 11.4, exposed concentration 60 ppm
[11] = carrot juice, Brix 8.8, exposed concentration 5 ppm
[12] = carrot juice, Brix 8.8, exposed concentration 10 ppm
[13] = carrot juice, Brix 8.8, exposed concentration 25 ppm
[14] = carrot juice, Brix 8.8, exposed concentration 60 ppm

In the case of `CC(=O)OO` [PAA, peracetic acid], the “PAA concentration (below detectable limit)” value ([1]; 20 ppm PAA in apple juice (Brix=11.4)) is reported as less than 0.89 ppm, the “PAA concentration (below detectable limit)” value ([1]; 20 ppm PAA in carrot juice (Brix=8.8)) is reported as less than 0.89 ppm and the half-life at 100 ppm ([1]; 100 ppm solution of PAA in apple juice (Brix=11.4)) is reported as less than 30 min. The half-life at 100 ppm ([1]; 100 ppm solution of PAA in carrot juice (Brix=8.8)) was less than 20 min, the PAA read ([1]; apple juice, Brix 11.4, PAA dosed 20 ppm, 90° C., 10 min, followed by 5 min in ice) was less than 0.98 ppm and the PAA read ([1]; apple juice, Brix 11.4, PAA dosed 100 ppm, 22° C., 60 min) was 19.6 ppm. For the same compound, the PAA read ([1]; apple juice, Brix 11.4, PAA dosed 100 ppm, 90° C., 10 min, followed by 5 min in ice) was 15.7 ppm, the PAA read ([1]; carrot juice, Brix 8.8, PAA dosed 20 ppm, 90° C., 10 min, followed by 5 min in ice) was less than 0.98 ppm and the PAA read ([1]; carrot juice, Brix 8.8, PAA dosed 100 ppm, 22° C., 60 min) was 3.92 ppm. It also gave a PAA read ([1]; carrot juice, Brix 8.8, PAA dosed 100 ppm, 90° C., 10 min, followed by 5 min in ice) of 2.94 ppm, an LR ([2]; 5 ppm, apple juice) of 4.34 and an LR ([2]; 5 ppm, carrot juice) of 4.18. For the same compound, the LR [2, 5] was 4.18, the LR ([2]; 10 ppm, apple juice) was 4.48 and the LR ([2]; 10 ppm, carrot juice) was 4.34. For the same compound, the LR [2, 6] was 4.51, the “reduction in the bacteria” value [2] was greater than 4 log and the “loss in cell viability” value ([3]; PAA dose as low as 0.35 ppm, 10 minutes) was “substantial loss in cell viability”. The “reduction in the bacteria” value ([3]; all PAA-treated samples, 1×10^7 CFU/ml challenge, 10 minutes (FIG. 4)) was greater than 4 log.

Work on `[O][Cl+][O-]` [chlorine dioxide] yielded an LR ([2]; 5 ppm, apple juice) of 0.65, an LR ([2]; 5 ppm, carrot juice) of 1.12 and an LR [2, 5] of 1.34. The LR ([2]; 10 ppm, apple juice) was 1.18, the LR ([2]; 10 ppm, carrot juice) was 1.57 and the LR [2, 6] was 1.24. For the same compound, the “reduction in the bacteria” value [2] was roughly 1 log, the Demand [4, 7] was greater than 4.95 ppm and the “Read Concentration” value [4, 7] was less than 0.05 ppm. The Demand [4, 8] was 9.32 ppm, the “Read Concentration” value [4, 8] was 0.68 ppm and the Demand [4, 9] was 24.3 ppm. The “Read Concentration” value [4, 9] was 0.7 ppm, the Demand [4, 10] was 57.8 ppm and the “Read Concentration” value [4, 10] was 2.2 ppm. The Demand [4, 11] was greater than 4.95 ppm, the “Read Concentration” value [4, 11] was less than 0.05 ppm and the Demand [4, 12] was greater than 9.95 ppm. For the same compound, the “Read Concentration” value [4, 12] was less than 0.05 ppm, the Demand [4, 13] was greater than 24.97 ppm and the “Read Concentration” value [4, 13] was less than 0.05 ppm. For the same compound, the Demand [4, 14] was 59.87 ppm and the “Read Concentration” value [4, 14] was 0.13 ppm.
